Test results as given in patent US20060246163A1, “TREATMENT OF INSULIN RESISTANCE SYNDROME” (TG BIOTECH, priority 2005, published 2006).

How the values were obtained:
Format in all cases: cell-based
AMPK = AMPK phosphorylation (threonine 172) in L6 myotube cells, immunoblot; conditions: 1 mM, high glucose
Procedure: L6 myotube cells were treated with 60 μg/mL of GP and incubated for the period of time indicated. Cells were lysed in lysis buffer and cytosolic proteins were resolved by SDS-PAGE, protein bands were transferred onto a nitrocellulose membrane, and phospho-AMPK was analyzed with specific antibodies. 1) control cells with no treatment; 2) cells treated with GP for 30 min; 3) cells treated with GP for 1 h; 3) cells with treated with GP for 2 hs.
(§2) The kinase activities were evaluated with specific antibodies. 1) control; 2) GP 30 μg/mL; 3) GP 60 μg/mL; 4) AICAR 1 mM.
We treated GP on L6 myotube cells to determine whether the treatment activates AMPK activity. Activation of AMPK was estimated by the increase in the phosphorylation on the threonine^172 residue of AMPK using specific antibodies. […] Cells were pretreated with high glucose (27.5 mM) to induce insulin resistance and to repress AMPK activation (Itani, 2003).
(§3) L6 cells were differentiated into mature muscle cells in a low serum condition (2%, v/v). AICAR was used as an internal positive control. Once drug treatments were completed, cells were harvested, subjected to be lysated, and equal amount of proteins from each treatment was loaded on gels for analyzing AMPK and p38 MAPK activity levels (FIG. 7). Total AMPK protein was also immunoblotted to make sure that equal amount of protein was loaded on the gels.

p38 MAPK = p38 MAPK activation in L6 cells; conditions: GP 30, 60 μg/mL; AICAR 1 mM
Procedure: as §2, §3
We investigated whether GP is able to activate p38 MAPK in L6 cells.

ACC = ACC Ser79 phosphorylation in L6 myotube cells; conditions: GP 30, 60, 100 μg/mL; AICAR 1 mM; insulin 100 nM
Procedure: (§1) 1) control; 2) GP 30 μg/mL; 3) GP 60 μg/mL; 4) GP 100 μg/mL; 5) AICAR 1 mM; 6) insulin 100 nM.
L6 myotube cells were treated with GP and AICAR.

AKT = AKT phosphorylation/activity in L6 cells; conditions: GP 30, 60, 100 μg/mL; AICAR 1 mM; insulin 100 nM
Procedure: as §1
AKT (also called protein kinase B, PKB) phosphorylation is catalyzed by PI3K in insulin signal pathway. Whether GP treatment on the muscle cells affects AKT activity was tested.

IKKβ = IKKβ phosphorylation/activity in L6 myotube cells in the presence of tunicamycin; conditions: GP 30, 60 μg/mL, AICAR 1 mM, insulin 100 nM
Procedure: The cytosolic fraction was subjected on SDS-PAGE and blotted on nitrocellulose membrane. The membrane was incubated with anti-phospho-IKKβ (S^177/181), anti-phospho IRS1 (S^307), and anti-phospho SAPK/JNK (T^183) antibodies. 1) control cells with no treatment; 2) L6 cells treated with tunicamycin; 3) cells treated with 30 μg/mL GP in the presence of tunicamycin; 4) cells treated with 60 μg/mL GP in the presence of tunicamycin; 5) cells treated with 1 mM AICAR in the presence of tunicamycin; 6) cells incubated with 100 nM insulin in the presence of tunicamycin; 7) cells incubated with 100 nM insulin in the absence of tunicamycin.
The effect of GP on the phosphorylation of IKKβ in L6 myotube cells in the presence of tunicamycin was evaluated. The cytosolic fraction was subjected to SDS-PAGE and blotted on nitrocellulose membrane. The cytosolic fraction was subjected to SDS-PAGE and blotted on nitrocellulose membrane. The membrane was incubated with anti-phospho-IKKβ (S^177/181), anti-phospho IRS1 (S^307), and anti-phospho SAPK/JNK (T^183) antibodies.

JNK = JNK activity in L6 myotube cells, phospho JNK immunoblot; conditions: 2 hs; GP 30, 60 μg/mL; AICAR 1 mM; insulin 100 nM
Procedure: L6 myotube cells were treated with GP for 2 hs. Cytosolic fraction was immunoblotted against phospho JNK antibodies. 1) control cells with no treatment; 2) GP 30 μg/ mL; 3) GP 60 μg/ mL; 4) AICAR 1 mM; 5) insulin 100 nM. We also investigated effects of GP treatment on JNK activity in L6 myotube cells.

L6 myotube cells = assay: 2-deoxyglucose uptake in L6 myotube cells; conditions: high glucose; GP 60 μg/mL 2 hs, AICAR 1 mM 1 h, insulin 100 nM 20 min
Procedure: Examples 1-5 indicate that GP would increase glucose uptake regardless of the presence of insulin. To measure the glucose uptake in vitro, we performed 2-deoxyglucose uptake experiment. Since 2-deoxyglucose is not metabolized inside cells, radiolabeled 2-deoxyglucose was used for measuring glucose uptake experiment. Whether GP increases glucose uptake in L6 myotube cells was investigated. Prior to adding the materials, the cells were incubated in the presence of high glucose, since high glucose is known to obstruct glucose uptake in muscle […] (60 μg/mL), AICAR (1 mM) and insulin (100 nM) were incubated for 2 hs, 1 h and 20 min, respectively. Immediately after washing in Hepes buffered saline (HBS), the cells were incubated with 2-deoxyglucose (10 μM) in HBS for 10 min. Extensive washing was preceded before measuring radioactivity in scintillation counter. The uptake unit was estimated by the total counts of incubation.

Molecule	Phosphorylation level of AMPK (AMPK)	p38 MAPK activation (p38 MAPK)	Phosphorylation of Ser79 of ACC (ACC)	AKT activity (phosphorylation) (AKT)	Serine phosphorylation / activity of IKKβ (IKKβ)	JNK activity (JNK)	Increase of 2-deoxyglucose uptake, on average (L6 myotube cells)
NC(=O)c1ncn([C@@H]2O[C@H](COP(=O)(O)O)[C@@H](O)[C@H]2O)c1N [AICAR, 5′-phosphoribosyl-5-aminoimidazole-4-carboxamide]	comparable to that of 60 μg/mL of GP	exhibited p38 activation	increased the phosphorylation of ACC but slightly less than that observed with 30 μg/mL of GP	Neither GP nor AICAR appeared to affect AKT activity	slightly reduced	not affected	42%
insulin: hormone used as positive marker/control for GLUT4 translocation and AKT activation	–	–	did not affect the phosphorylation	activated AKT activity considerably	slightly reduced	not affected	40%
